{"source": "ChEMBL document CHEMBL2385028", "about": "“Augmentation of GABAergic neurotransmission by novel N-(substituted)-2-[4-(substituted)benzylidene]hydrazinecarbothioamides-a potential anticonvulsant approach” (Eur J Med Chem, 2013)", "key": {"physchem": {"experiment": "physchem", "conditions": "octanol/phosphate buffer", "description": "Octanol-phosphate buffer partition coefficient, log P of the compound after 24 hrs by UV spectroscopic analysis"}, "Mus musculus [1]": {"system": "Mus musculus", "experiment": "Anticonvulsant activity in albino CF-1 mouse assessed as protection against 6 Hz psychomotor seizure at 100 mg/kg, ip after 0.5 hrs by minimal clonic seizure test relative to control", "assay_type": "functional", "conditions": "route intraperitoneal"}, "Rattus norvegicus [2]": {"system": "Rattus norvegicus", "experiment": "Neurotoxicity in albino Sprague-Dawley rat assessed as motor impairment up to 600 mg/kg, ip measured for 4 hrs", "assay_type": "toxicity, organism-based", "set-up": "dose 600 mg/kg, route intraperitoneal", "conditions": "in vivo"}, "Mus musculus [3]": {"system": "Mus musculus", "experiment": "Anticonvulsant activity in albino CF-1 mouse assessed as protection against 6 Hz psychomotor seizure at 100 mg/kg, ip after 1 hr by minimal clonic seizure test relative to control", "assay_type": "functional", "conditions": "route intraperitoneal"}, "Rattus norvegicus [4]": {"system": "Rattus norvegicus", "experiment": "Anticonvulsant activity in albino Sprague-Dawley rat assessed as protection against pilocarpine-induced status epilepticus at 600 mg/kg, ip administered prior to pilocarpine-challenge", "assay_type": "functional, organism-based", "set-up": "dose 600 mg/kg"}, "[5]": {"experiment": "Neuroprotective activity in hippocampal slices (unknown origin) assessed as protection against NMDA-induced cell death by propidium-iodide staining-based fluorescence assay", "assay_type": "functional, tissue-based", "conditions": "Hippocampus"}, "[6]": {"experiment": "Neuroprotective activity in hippocampal slices (unknown origin) assessed as protection against kainic acid-induced cell death by propidium-iodide staining-based fluorescence assay", "assay_type": "functional, tissue-based", "conditions": "Hippocampus"}, "Mus musculus [7]": {"system": "Mus musculus", "experiment": "Anticonvulsant activity in albino CF-1 mouse assessed as protection against 6 Hz psychomotor seizure at 100 mg/kg, ip after […] by minimal clonic seizure test relative to control", "description": "Anticonvulsant activity in albino CF-1 mouse assessed as protection against 6 Hz psychomotor seizure at 100 mg/kg, ip after 0.25 hrs by minimal clonic seizure test relative to control"}, "Mus musculus [8]": {"system": "Mus musculus", "experiment": "Anticonvulsant activity in albino CF-1 mouse at 300 mg/kg, ip assessed as protection against maximal electroshock-induced seizures in half or more animals after 2 hrs", "assay_type": "functional, organism-based", "set-up": "dose 300 mg/kg"}, "Mus musculus [9]": {"system": "Mus musculus", "experiment": "Anticonvulsant activity in albino CF-1 mouse at 300 mg/kg, ip assessed as protection against maximal electroshock-induced seizures in half or more animals after 0.5 hrs", "assay_type": "functional, organism-based", "set-up": "dose 300 mg/kg"}, "Mus musculus [10]": {"system": "Mus musculus", "experiment": "Anticonvulsant activity in albino CF-1 mouse assessed as protection against subcutaneous metrazole-induced seizures in half or more animals at 300 mg/kg, ip after 0.5 hrs", "assay_type": "functional, organism-based", "set-up": "dose 300 mg/kg"}, "Mus musculus [11]": {"system": "Mus musculus", "experiment": "Anticonvulsant activity in ip dosed albino CF-1 mouse assessed as protection against 6 Hz psychomotor seizure after 4 hrs by minimal clonic seizure test", "assay_type": "functional", "conditions": "albino CF-1, ip"}, "Mus musculus [12]": {"system": "Mus musculus", "experiment": "Anticonvulsant activity in albino CF-1 mouse assessed as protection against subcutaneous metrazole-induced seizures in half or more animals at 300 mg/kg, ip after 4 hrs", "assay_type": "functional, organism-based", "set-up": "dose 300 mg/kg"}, "Rattus norvegicus [13]": {"system": "Rattus norvegicus", "experiment": "Effect on GABA levels in Wistar rat midbrain at 30 mg/kg, ip after 2 hrs measured per 100 mg tissue", "assay_type": "functional", "conditions": "route intraperitoneal"}, "Mus musculus [14]": {"system": "Mus musculus", "experiment": "Anticonvulsant activity in ip dosed albino CF-1 mouse assessed as protection against maximal electroshock-induced seizures in half or more animals after 4 hrs", "assay_type": "functional", "conditions": "albino CF-1, ip, read-out: MED"}, "Mus musculus [15]": {"system": "Mus musculus", "experiment": "Anticonvulsant activity in albino CF-1 mouse at 300 mg/kg, ip assessed as protection against maximal electroshock-induced seizures in half or more animals after 4 hrs relative to control", "assay_type": "functional", "conditions": "route intraperitoneal"}, "Rattus norvegicus [16]": {"system": "Rattus norvegicus", "experiment": "Effect on GABA levels in Wistar rat cerebellum at 30 mg/kg, ip after 2 hrs measured per 100 mg tissue", "assay_type": "functional", "conditions": "route intraperitoneal"}, "Rattus norvegicus [17]": {"system": "Rattus norvegicus", "experiment": "Effect on GABA levels in Wistar rat olfactory lobe at 30 mg/kg, ip after 2 hrs measured per 100 mg tissue", "assay_type": "functional", "conditions": "route intraperitoneal"}, "Rattus norvegicus [18]": {"system": "Rattus norvegicus", "experiment": "Effect on GABA levels in Wistar rat medulla oblongata at 30 mg/kg, ip after 2 hrs measured per 100 mg tissue", "assay_type": "functional", "conditions": "route intraperitoneal"}, "Mus musculus [19]": {"system": "Mus musculus", "experiment": "Anticonvulsant activity in albino CF-1 mouse assessed as protection against 6 Hz psychomotor seizure at 100 mg/kg, ip after 2 hrs by minimal clonic seizure test relative to control", "assay_type": "functional", "conditions": "route intraperitoneal"}, "[20]": {"experiment": "Inhibition of voltage-dependent calcium channel subunit alpha-2/delta gabapentin binding site (unknown origin)", "set-up": "species or system Homo sapiens"}}, "note": "Activity calls are given as the source filed them. No cut-off for these calls is given here.", "data": [{"smiles": "Cc1ccc(NC(=S)N/N=C/c2ccc(Oc3ccc4c(c3)OCO4)cc2)cc1", "values": [{"measurement": "logP at 24 h", "setting": "physchem", "result": 5.34}]}, {"smiles": "COc1ccc(NC(=S)N/N=C/c2ccc(Oc3ccc4c(c3)OCO4)cc2)cc1", "values": [{"measurement": "logP at 24 h", "setting": "physchem", "result": 4.9}]}, {"smiles": "COc1ccc(NC(=S)N/N=C/c2ccc(Oc3ccc4ccccc4c3)cc2)cc1", "values": [{"measurement": "logP at 24 h", "setting": "physchem", "result": 6.11}]}, {"smiles": "Cc1ccc(NC(=S)N/N=C/c2ccc(Oc3ccc(Br)cc3)cc2)cc1", "values": [{"measurement": "logP at 24 h", "setting": "physchem", "result": 6.23}]}, {"smiles": "COc1ccc(NC(=S)N/N=C/c2ccc(Oc3ccccc3)cc2)cc1", "values": [{"measurement": "Activity", "setting": "Mus musculus [1]", "result": 50, "unit": "%"}, {"measurement": "Activity", "setting": "Rattus norvegicus [2]", "result": "Non-toxic"}, {"measurement": "Activity", "setting": "Mus musculus [3]", "result": 75, "unit": "%"}, {"measurement": "Activity", "setting": "Rattus norvegicus [4]", "result": "inactive"}, {"measurement": "Activity", "setting": "[5]", "result": "inactive"}, {"measurement": "logP at 24 h", "setting": "physchem", "result": 4.99}, {"measurement": "Activity", "setting": "[6]", "result": "inactive"}]}, {"smiles": "S=C(N/N=C/c1ccc(Oc2ccc(Br)cc2)cc1)NC1CCCCC1", "values": [{"measurement": "Activity", "setting": "Mus musculus [7]", "result": "inactive"}, {"measurement": "logP at 24 h", "setting": "physchem", "result": 6.36}]}, {"smiles": "COc1ccc(NC(=S)N/N=C/c2ccc(Oc3ccc(C)cc3)cc2)cc1", "values": [{"measurement": "Activity", "setting": "Mus musculus [8]", "result": "inactive"}, {"measurement": "Activity", "setting": "Mus musculus [9]", "result": "inactive"}, {"measurement": "Activity", "setting": "Mus musculus [10]", "result": "inactive"}, {"measurement": "Activity", "setting": "Rattus norvegicus [2]", "result": "Non-toxic"}, {"measurement": "Activity", "setting": "Mus musculus [3]", "result": 100, "unit": "%"}, {"measurement": "Activity", "setting": "Rattus norvegicus [4]", "result": "inactive"}, {"measurement": "ED50", "setting": "Mus musculus [11]", "result": "> 100", "unit": "mg/kg"}, {"measurement": "Activity", "setting": "Mus musculus [12]", "result": "inactive"}, {"measurement": "Activity", "setting": "Rattus norvegicus [13]", "result": 58.09, "unit": "mg"}, {"measurement": "Activity", "setting": "[5]", "result": "inactive"}, {"measurement": "logP at 24 h", "setting": "physchem", "result": 5.44}, {"measurement": "minimal effective dose", "setting": "Mus musculus [14]", "result": 300, "unit": "mg/kg"}, {"measurement": "Activity", "setting": "Mus musculus [15]", "result": 100, "unit": "%"}, {"measurement": "Activity", "setting": "Rattus norvegicus [16]", "result": 27.02, "unit": "mg"}, {"measurement": "Activity", "setting": "[6]", "result": "inactive"}, {"measurement": "Activity", "setting": "Rattus norvegicus [17]", "result": 15.84, "unit": "mg"}, {"measurement": "Activity", "setting": "Rattus norvegicus [18]", "result": 50.08, "unit": "mg"}, {"measurement": "Activity", "setting": "Mus musculus [19]", "result": 50, "unit": "%"}]}, {"smiles": "COc1ccc(NC(=S)N/N=C/c2ccc(Oc3ccc(Cl)c(C)c3)cc2)cc1", "values": [{"measurement": "Activity", "setting": "Mus musculus [7]", "result": "inactive"}, {"measurement": "logP at 24 h", "setting": "physchem", "result": 6.03}]}, {"smiles": "Cc1ccc(NC(=S)N/N=C/c2ccc(Oc3ccc(Cl)cc3)cc2)cc1", "values": [{"measurement": "logP at 24 h", "setting": "physchem", "result": 6.71}]}, {"smiles": "Cc1ccc(NC(=S)N/N=C/c2ccc(Oc3ccc(C)cc3)cc2)cc1", "values": [{"measurement": "logP at 24 h", "setting": "physchem", "result": 5.84}]}, {"smiles": "Cc1ccc(NC(=S)N/N=C/c2ccc(Oc3ccc4ccccc4c3)cc2)cc1", "values": [{"measurement": "logP at 24 h", "setting": "physchem", "result": 6.56}]}, {"smiles": "Cc1ccc(Oc2ccc(/C=N/NC(=S)Nc3ccccc3)cc2)cc1", "values": [{"measurement": "logP at 24 h", "setting": "physchem", "result": 5.39}]}, {"smiles": "S=C(N/N=C/c1ccc(Oc2ccccc2)cc1)NC1CCCCC1", "values": [{"measurement": "logP at 24 h", "setting": "physchem", "result": 5.7}]}, {"smiles": "S=C(N/N=C/c1ccc(Oc2ccccc2)cc1)Nc1ccccc1", "values": [{"measurement": "logP at 24 h", "setting": "physchem", "result": 4.9}]}, {"smiles": "COc1ccc(NC(=S)N/N=C/c2ccc(Oc3ccc([N+](=O)[O-])cc3)cc2)cc1", "values": [{"measurement": "logP at 24 h", "setting": "physchem", "result": 4.9}]}, {"smiles": "S=C(N/N=C/c1ccc(Oc2ccc(Br)cc2)cc1)Nc1ccccc1", "values": [{"measurement": "Activity", "setting": "Mus musculus [7]", "result": "inactive"}, {"measurement": "logP at 24 h", "setting": "physchem", "result": 5.62}]}, {"smiles": "S=C(N/N=C/c1ccc(Oc2ccc3c(c2)OCO3)cc1)Nc1ccccc1", "values": [{"measurement": "logP at 24 h", "setting": "physchem", "result": 4.8}]}, {"smiles": "O=C(O)[C@H]1CNCC12CCCCC2", "values": [{"measurement": "IC50", "setting": "[20]", "result": 120, "unit": "nM"}]}, {"smiles": "COc1ccc(NC(=S)N/N=C/c2ccc(Oc3ccc(Cl)cc3)cc2)cc1", "values": [{"measurement": "logP at 24 h", "setting": "physchem", "result": 5.68}]}]}
